Reference: BigSolDB 2.1

O=C(O)c1c(O)cccc1O
solubility (mole fraction) (in ethanol, 278.15 K): 0.221
solubility (mole fraction) (in ethanol, 283.15 K): 0.234
solubility (mole fraction) (in ethanol, 288.15 K): 0.245
solubility (mole fraction) (in ethanol, 293.15 K): 0.258
solubility (mole fraction) (in ethanol, 298.15 K): 0.273
solubility (mole fraction) (in ethanol, 303.15 K): 0.286
solubility (mole fraction) (in ethanol, 308.15 K): 0.294
solubility (mole fraction) (in ethanol, 313.15 K): 0.306
solubility (mole fraction) (in ethanol, 318.15 K): 0.318
solubility (mole fraction) (in isopropanol, 278.15 K): 0.225
solubility (mole fraction) (in isopropanol, 283.15 K): 0.24
solubility (mole fraction) (in isopropanol, 288.15 K): 0.254
solubility (mole fraction) (in isopropanol, 293.15 K): 0.268
solubility (mole fraction) (in isopropanol, 298.15 K): 0.28
solubility (mole fraction) (in isopropanol, 303.15 K): 0.292
solubility (mole fraction) (in isopropanol, 308.15 K): 0.303
solubility (mole fraction) (in isopropanol, 313.15 K): 0.315
solubility (mole fraction) (in isopropanol, 318.15 K): 0.323
solubility (mole fraction) (in methanol, 278.15 K): 0.2
solubility (mole fraction) (in methanol, 283.15 K): 0.214
solubility (mole fraction) (in methanol, 288.15 K): 0.227
solubility (mole fraction) (in methanol, 293.15 K): 0.247
solubility (mole fraction) (in methanol, 298.15 K): 0.261
solubility (mole fraction) (in methanol, 303.15 K): 0.276
solubility (mole fraction) (in methanol, 308.15 K): 0.284
solubility (mole fraction) (in methanol, 313.15 K): 0.3
solubility (mole fraction) (in methanol, 318.15 K): 0.314
solubility (mole fraction) (in n-butanol, 278.15 K): 0.189
solubility (mole fraction) (in n-butanol, 283.15 K): 0.202
solubility (mole fraction) (in n-butanol, 288.15 K): 0.216
solubility (mole fraction) (in n-butanol, 293.15 K): 0.23
solubility (mole fraction) (in n-butanol, 298.15 K): 0.245
solubility (mole fraction) (in n-butanol, 303.15 K): 0.26
solubility (mole fraction) (in n-butanol, 308.15 K): 0.275
solubility (mole fraction) (in n-butanol, 313.15 K): 0.29
solubility (mole fraction) (in n-butanol, 318.15 K): 0.306
